Where two headings read alike, the source gives them in different places.
Tests used:
[1] = cited from earlier work
[2] = cited from earlier work; remark: listed apart in the source
[3] = cited from earlier work; remark: listed apart in the source
CYP3A4 = settings: nicardipine, cited from earlier work
[4] = cited from earlier work; remark: listed apart in the source
[5] = cited from earlier work; remark: listed apart in the source
[6] = Non-clinical drug–drug interaction / oral pharmacokinetic study in Sprague–Dawley rats; type: in vivo, rat; settings: for AUC(0-inf) / CL/F / Cmax / Tmax / half-life: male, Sprague-Dawley, plasma
Protocol: Male Sprague–Dawley (SD) rats, 7 weeks old (180–210 g), were purchased from Hana Biotech (Pyeongtaek, Republic of Korea). The rats were kept in a room with a relative humidity of 50–60%, a temperature of 21 ± 2 °C, and a 12 h light/dark cycle and were acclimatized to these conditions for a week. The protocol for these experiments was approved by Inje University’s Animal Care Committee (Inje 2022-012, Gimhae, Republic of Korea).
The drug was orally administered via a feeding tube, employing a total dosing volume of 5 mL/kg across all groups. Blood samples (approximately 200 μL) were collected from the jugular vein at 0.25, 0.5, 1, 2, 3, 4, 6, 8, 12, and 24 h post-dose. […] The blood samples were promptly centrifuged at 15,000 rpm for 5 min at 4 °C. The resulting plasma was stored at -70 °C until HPLC or LC-MS/MS analysis.
The calculated pharmacokinetic parameters included the following: area under the time–plasma concentration curve (AUC) between from0 to infinity (AUCinf); maximum plasma concentration (Cmax); time to reach maximum concentration (Tmax); terminal half-life (t1/2); oral clearance (CL/F). Pharmacokinetic parameters are expressed as the mean ± standard deviation (SD). For statistical analysis, a Student’s t-test was performed using GraphPad Prism software (San Diego, CA, USA) with a significance threshold of less than 0.05.
The LC-MS/MS system consisted of an Agilent 6490 triple quadrupole mass spectroscopy system and a 1290 infinity HPLC system (Agilent Technologies, Santa Clara, CA, USA). The separation of compounds was accomplished by a reversed-phase column (Synergi Polar-RP 80 Å, 150 × 2.0 mm, 4 μm, Phenomenex, Torrance, CA, USA) with a security guard. […] Multiple reaction monitoring (MRM) modes were used for the quantitative study of the compound’s precursor ion and product ion transitions. […] In addition, 1′-hydroxy midazolam was analyzed under the following conditions. The mobile phase was a mixture of 0.1% formic acid in water and ACN (50:50 v/v), with a flow rate of 0.2 mL/min. The column temperature was kept constant at 25 °C. The following ion values (m/z) were obtained by monitoring the transitions: 1′-hydroxy midazolam, 342.0 → 203.1; phenacetin (IS), 180.0 → 162.2. The data analysis was achieved using MassHunter software version A.06.00 (Agilent Technologies, Santa Clara, CA, USA).
The HPLC system included a degasser pump (L-2130), a column oven (L-2300), an autosampler (L-2200), and a diode array detector (L-2455). The analysis was carried out using the software Hitachi LaChrom D-2000 Elite (Merck-Hitachi, Tokyo, Japan). The separation was accomplished using a reversed-phase column (Synchronis C18 150 × 4.6 mm, 5 μm, Thermo Scientific, Waltham, MA, USA) with a guard column (security guard C18 4 × 2.0 mm, Phenomenex, Torrance, CA, USA). The mobile phase was comprised of phases A (ACN) and B (0.015 M potassium phosphate monobasic (KH2PO4) with 2.8 mM triethylamine in water). The mobile phase was A:B = 60:40, with a flow rate of 1.5 mL/min. The temperature of the column oven controller was maintained at 40 °C, and 50 μL of sample was injected into the system.

hCYP3A4 = system: hCYP3A4; parameters: method as in PMID 22496391; settings: saxagliptin, cited from earlier work
[7] = saxagliptin, cited from earlier work
CYP3A2 = target: T1, CYP3A2 (Rattus norvegicus, UniProt P05183); experiment: Saxagliptin metabolic stability with recombinant rat CYP3A2; type: in vitro ADME; settings: rat, recombinant rat CYP3A2, pH 7.4; read-out: half-life after incubation with rCYP3A2 reaction mixture
T1 construct: purchased Xenotech (Lenexa, KS, USA)
T1 sequence (P05183 1-504): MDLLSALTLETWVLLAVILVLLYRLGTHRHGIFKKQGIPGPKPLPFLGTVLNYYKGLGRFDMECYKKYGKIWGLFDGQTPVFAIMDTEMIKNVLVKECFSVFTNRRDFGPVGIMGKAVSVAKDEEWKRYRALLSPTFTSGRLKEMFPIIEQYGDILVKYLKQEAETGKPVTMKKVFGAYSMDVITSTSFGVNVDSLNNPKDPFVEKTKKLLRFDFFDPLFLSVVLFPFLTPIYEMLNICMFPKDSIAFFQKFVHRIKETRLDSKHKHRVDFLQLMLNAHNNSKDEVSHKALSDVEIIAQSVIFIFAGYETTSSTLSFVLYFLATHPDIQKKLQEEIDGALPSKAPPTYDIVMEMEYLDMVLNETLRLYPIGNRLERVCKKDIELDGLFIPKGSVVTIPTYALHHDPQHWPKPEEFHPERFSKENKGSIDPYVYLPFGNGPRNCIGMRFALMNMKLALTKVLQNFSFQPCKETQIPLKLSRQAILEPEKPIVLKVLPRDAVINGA
Protocol: (§1) After initiating the reaction by adding NADPH solution, the sampling was carried out at 37 °C for 0, 5, 10, 20, and 30 min in triplicate and stopped with methanol containing 200 ng/mL tolbutamide as an internal standard (IS) for HPLC analysis.

[8] = target: T2, recombinant rat CYP3A2 (rCYP3A2) (Rattus norvegicus, UniProt P05183); experiment: as above; type: in vitro ADME; settings: in-house data
T2 construct: purchased Xenotech (Lenexa, KS, USA)
T2 sequence (P05183 1-504): T1 sequence (P05183 1-504)
Protocol: as §1

hCYP3A5 = system: hCYP3A5; parameters: method as in PMID 22496391; settings: saxagliptin, cited from earlier work
[9] = nicardipine, input of rat and human models
[10] = nicardipine, rat and human models
[11] = saxagliptin, human PBPK model input
[12] = saxagliptin, rat PBPK model input

Compound: COC(=O)C1=C(C)NC(C)=C(C(=O)OCCN(C)Cc2ccccc2)C1c1cccc([N+](=O)[O-])c1 (centres unmarked) [nicardipine]
- AUCinf observed ([1]; nicardipine, human po 40 mg): 163 ng·h/mL
- Cmax observed ([1]; nicardipine, human po 40 mg): 58.8 ng/mL
- t1/2 observed ([1]; nicardipine, human po 40 mg): 2.80 h
- Fraction unbound, human, input value ([2]; nicardipine, human PBPK model input): 0.01
- Fraction unbound, human, reference value ([2]; nicardipine, human plasma): 0.01
- Fraction unbound, rat, input value ([3]; nicardipine, rat PBPK model input): 0.084
- Fraction unbound, rat, reference value ([3]; nicardipine, rat plasma): 0.084
- pKa (compound type), input value ([4]; nicardipine, base, input of rat and human models): 8.1 (base)
- pKa (compound type), reference value ([4]; nicardipine, base, rat and human models): 8.1 (base)
- Lipophilicity, input value [4, 9]: 4.6 logD7.4
- Solubility (ref-pH), input value ([4]; nicardipine, pH 7, input of rat and human models): 7.9 (pH 7) mg/mL
- Solubility (ref-pH), reference value ([4]; nicardipine, pH 7, rat and human models): 7.9 (pH 7) mg/mL
- Lipophilicity, reference value [4, 10]: 4.6 logD7.4
- Specific intestinal permeability, input value [5, 9]: 1.15 10^−6 cm/s
- Specific intestinal permeability, reference value [5, 10]: 1.15 10^−6 cm/s
- AUC(0-inf) ([6]; rat, po, 15 mg/kg, AUCinf of nicardipine, 15 mg/kg alone, mean ± SD): 408 ± 121 ng·h/mL
- CL/F ([6]; rat, po, 15 mg/kg, CL/F of nicardipine, 15 mg/kg alone, mean ± SD): 662 mL/min/kg
- Cmax ([6]; rat, po, 15 mg/kg, Cmax of nicardipine, 15 mg/kg alone, mean ± SD): 132 ± 35.3 ng/mL
- Tmax ([6]; rat, po, 15 mg/kg, Tmax of nicardipine, 15 mg/kg alone, mean ± SD): 0.357 ± 0.134 h
- half-life ([6]; rat, po, 15 mg/kg, t1/2 of nicardipine, 15 mg/kg alone, mean ± SD): 5.76 ± 1.45 h

Compound: N#C[C@@H]1C[C@@H]2C[C@@H]2N1C(=O)[C@@H](N)C12CC3CC(CC(O)(C3)C1)C2 [saxagliptin]
- CLint hCYP3A4, input (hCYP3A4; human PBPK model input): 0.38 μL/min/pmol CYP
- CLint hCYP3A4, reference (hCYP3A4; human): 0.38 μL/min/pmol CYP
- AUCinf observed ([1]; saxagliptin, human po 2.5 mg): 49.1 ng·h/mL
- Cmax observed ([1]; saxagliptin, human po 2.5 mg): 7.89 ng/mL
- t1/2 observed ([1]; saxagliptin, human po 2.5 mg): 7.21 h
- Renal clearance, human, input [1, 11]: 1.9 mL/min/kg
- Renal clearance, human, reference ([1]; saxagliptin, human): 1.9 mL/min/kg
- Renal clearance, rat, input ([7]; rat PBPK model input): 38 mL/min/kg
- Renal clearance, rat, reference ([7]; rat): 38 mL/min/kg
- Fraction unbound, human, input [2, 11]: 1
- Fraction unbound, human, reference ([2]; saxagliptin, human): 1
- Fraction unbound, rat, input [3, 12]: 0.82
- Fraction unbound, rat, reference ([3]; saxagliptin, rat): 0.82
- pKa (compound type), input ([4]; saxagliptin, base, input of rat and human models): 7.9 (base)
- pKa (compound type), reference ([4]; saxagliptin, base, rat and human models): 7.9 (base)
- Solubility (ref-pH), input ([4]; saxagliptin, pH 7, input of rat and human models): 17.6 (pH 7) mg/mL
- Solubility (ref-pH), reference ([4]; saxagliptin, pH 7, rat and human models): 17.6 (pH 7) mg/mL
- Lipophilicity, reference ([4]; saxagliptin, reference value for rat and human PBPK models): −0.35 logD7.4
- Specific intestinal permeability, reference ([5]; saxagliptin, rat and human models): 2.73 10^−6 cm/s
- half-life at 5 μM (CYP3A2): 0.58 h
- CLint rCYP3A2, reference ([8]; saxagliptin 5 μM, 10 pmol CYP/mL, 1 mM NADPH, 37 °C): 1.99 μL/min/pmol CYP
- CLint rCYP3A2, input [8, 12]: 1.99 μL/min/pmol CYP
- AUC(0-inf) ([6]; rat, po, 5 mg/kg, AUCinf of saxagliptin, alone, SXG 5 mg/kg alone, mean ± SD): 156 ± 22.9 ng·h/mL
- AUC(0-inf) ([6]; rat, po, 5 mg/kg, AUCinf of saxagliptin, co-administered with nicardipine, rat, po, SXG 5 mg/kg + NCD 15 mg/kg, mean ± SD): 408 ± 213 ng·h/mL
- CL/F ([6]; rat, po, 5 mg/kg, CL/F of saxagliptin, alone, SXG 5 mg/kg alone, mean ± SD): 542 mL/min/kg
- CL/F ([6]; rat, po, 5 mg/kg, CL/F of saxagliptin, co-administered with nicardipine, rat, po, SXG 5 mg/kg + NCD 15 mg/kg, mean ± SD): 238 mL/min/kg
- Cmax ([6]; rat, po, 5 mg/kg, Cmax of saxagliptin, alone, SXG 5 mg/kg alone, mean ± SD): 98.5 ± 15.1 ng/mL
- Cmax ([6]; rat, po, 5 mg/kg, Cmax of saxagliptin, co-administered with nicardipine, rat, po, SXG 5 mg/kg + NCD 15 mg/kg, mean ± SD): 281 ± 147 ng/mL
- Tmax ([6]; rat, po, 5 mg/kg, Tmax of saxagliptin, alone, SXG 5 mg/kg alone, mean ± SD): 0.417 ± 0.129 h
- Tmax ([6]; rat, po, 5 mg/kg, Tmax of saxagliptin, co-administered with nicardipine, rat, po, SXG 5 mg/kg + NCD 15 mg/kg, mean ± SD): 0.464 ± 0.094 h
- half-life ([6]; rat, po, 5 mg/kg, t1/2 of saxagliptin, alone, SXG 5 mg/kg alone, mean ± SD): 1.82 ± 0.737 h
- half-life ([6]; rat, po, 5 mg/kg, t1/2 of saxagliptin, co-administered with nicardipine, rat, po, SXG 5 mg/kg + NCD 15 mg/kg, mean ± SD): 2.97 ± 1.23 h
- Cmax ([6]; rat, po, Cmax of saxagliptin, co-administered with nicardipine, rat, po, SXG 5 mg/kg + NCD 15 mg/kg, mean ± SD): 280 ± 147 ng/mL
- AUCinf of saxagliptin, alone ([6]; rat, po, SXG 5 mg/kg alone, mean ± SD, listed as SXG): 157 ± 23.1 ng·h/mL
- increase of plasma concentration of saxagliptin in vivo ([6]; rats, co-administration with nicardipine): more than 2 fold
- CLint hCYP3A5, input (hCYP3A5; human PBPK model input): 0.09 μL/min/pmol CYP
- CLint hCYP3A5, reference (hCYP3A5; human): 0.09 μL/min/pmol CYP

— article PMC10892660 (Pharmaceutics, 2024)
